Data on 26 compounds can be found in patent US12559454B2, “Benzenesulfonamide derivatives and uses thereof” (2692372 Ontario, Inc., priority 2019, dated 2026).

Assay [1] concerns MV4-11 cells. Description: CellTiter-Blue cell viability, MV-4-11. The class given is cell-based. To be noted: Homo sapiens, 72 hrs exposure. As to the method: (§1) Anti-cancer efficacy of exemplary compounds of this application was assessed in vitro in different cancer cell lines. Cell viability was examined following treatment at various concentration of inhibitor (0.097656-50 μM) using a cell Titer-Blue cell viability assay. 1×10^4 cells (NHF, MV4-11, K562 and MOLM-13 cells)/well were plated in 96-well assay plates in culture medium. All cells were grown in DMEM, IMDM and RPMI-1640 supplemented with 10% FBS. After 24 hrs, test compounds and vehicle controls were added to appropriate wells so the final volume was 100 μl in each well. The cells were cultured for the desired test exposure period (72 hrs) at 37° C. and 5% CO2. The assay plates were removed from 37° C. incubator and 20 μl/well of CellTiter-Blue® Reagent was added. The plates were incubated using standard cell culture conditions for 1-4 hours and the plates were shaken for 10 seconds and record fluorescence at 560/590 nm.
(Resazurin is reduced to fluorescent resorufin, in cell work by metabolically active cells.)

Assay [2] relates to MOLM-13 cells. Description: CellTiter-Blue cell viability, MOLM-13. The class given is cell-based. To be noted: Homo sapiens, 72 hrs exposure. As to the method: as §1
Assay [3] has as its system K562 cells. Description: CellTiter-Blue cell viability, K562. The class given is cell-based. To be noted: Homo sapiens, 72 hrs exposure. On the procedure:
as §1

The test system of assay [4] is tubulin. Description: Tubulin polymerization assay. Format: biochemical. To be noted: for % Inhibition: Vmax normalized to tubulin only control; for % D.O.P.: degree of polymerization relative to tubulin control. On the procedure: A96-well half-area clear flat-bottom microplate (Corning® #3697) was pre-heated in a plate reader (Cytation 3, BioTek) at 37° C. for 15 minutes prior to the start of each assay. Tubulin polymerization buffer (80 mM PIPES pH 6.9, 2 mM MgCl2, 0.5 mM EGTA, 15% glycerol, 1 mM GTP) was prepared from stock solutions and placed on ice. Inhibitors were prepared to M concentrations in buffer (80 mM PIPES pH 6.9, 2 mM MgCl2, 0.5 mM EGTA, 5% DMSO) from DMSO stock solutions. After the assay plate was pre-warmed, 10 μL of inhibitor or buffer control was added to selected wells. Every assay contained a tubulin only negative control for normalization of data, and a batabulin positive control. The assay plate was incubated at 37° C. for 3 minutes. During this time, a frozen aliquot of tubulin (10 mg/mL) in buffer (80 mM PIPES pH 6.9, 2 mM MgCl2, 0.5 mM EGTA) was defrosted by placing in a room temperature water bath. Once thawed, 200 μL of tubulin was mixed with 420 μL ice cold tubulin polymerization buffer (3 mg/mL tubulin in 80 mM PIPES, pH 6.9, 2 mM MgCl2, 0.5 mM EGTA, 1 mM GTP, 10.2% glycerol). To a 96-well plate on ice, aliquots of 100 μL tubulin was added to each well. From this plate, 90 μL of tubulin was immediately pipetted into all sample wells of the warmed assay plate using a multi-channel pipette. The assay plate was immediately put in the reader at 37° C. and shook for 5 s with orbital shaking at medium speed. The reader recorded the absorbance at 340 nm every 15 s for 30 min.
The resulting absorbance curves were normalized by subtracting each data point by the absorbance at time 0.
The largest change in absorbance over the assay time course was also recorded and related to the tubulin control as the % degree of polymerization (% D.O.P.).

The term IC50 denotes the concentration at which inhibition is half-maximal. A high value points to lower potency. `CN(C)S(=O)(=O)c1c(F)c(F)c(F)c(F)c1OCc1ccccc1` [Compound I-2, 2-(benzyloxy)-3,4,5,6-tetrafluoro-N,N-dimethylbenzenesulfonamide]: the IC50 was 0.1 to 1 µM in assay [1], 1 to 10 µM in assay [2] and greater than 10 µM in assay [3].

Consider `CN(C)S(=O)(=O)c1c(O)c(F)c(F)c(F)c1F` [Compound I-3, 2,3,4,5-tetrafluoro-6-hydroxy-N,N-dimethylbenzenesulfonamide], for which the IC50 in assay [1] and in assay [3] was greater than 10 µM each time.

Take `CCOc1c(F)c(F)c(F)c(F)c1S(=O)(=O)N(C)C` [Compound I-5, 2-ethoxy-3,4,5,6-tetrafluoro-N,N-dimethylbenzenesulfonamide]: the IC50 in assay [2] and in assay [3] was greater than 10 µM throughout.

`CC(C)Oc1c(F)c(F)c(F)c(F)c1S(=O)(=O)N(C)C` [Compound I-6, 2,3,4,5-tetrafluoro-6-isopropoxy-N,N-dimethylbenzenesulfonamide]: the IC50 in assay [1] was 1 to 10 µM; in assay [2], 1 to 10 µM; in assay [3], greater than 10 µM.

As to `CN(C)S(=O)(=O)c1c(F)c(F)c(F)c(F)c1OC(F)F` [Compound I-8, 2-(difluoromethoxy)-3,4,5,6-tetrafluoro-N,N-dimethylbenzenesulfonamide], the IC50 in assay [1] was 1 to 10 µM; in assay [2], greater than 10 µM; in assay [3], greater than 10 µM.

`CN(C)S(=O)(=O)c1c(F)c(F)c(F)c(F)c1OCC(F)(F)F` [Compound I-10, 2,3,4,5-tetrafluoro-N,N-dimethyl-6-(2,2,2-trifluoroethoxy)benzenesulfonamide]: the IC50 in assay [1] is 1 to 10 µM; in assay [3], greater than 10 µM.

As to `CN(C)S(=O)(=O)c1c(F)c(F)c(F)c(F)c1OCc1ccc(F)cc1F` [Compound I-16, 2-((2,4-difluorobenzyl)oxy)-3,4,5,6-tetrafluoro-N,N-dimethylbenzenesulfonamide], the IC50 in assay [1] is 0.1 to 1 µM; in assay [2] it was 1 to 10 µM; in assay [3], greater than 10 µM.

Regarding `CN(C)S(=O)(=O)c1c(F)c(F)c(F)c(F)c1OCc1ccncc1` [Compound I-17, 2,3,4,5-tetrafluoro-N,N-dimethyl-6-(pyridin-4-ylmethoxy)benzenesulfonamide], the IC50 was 1 to 10 µM in assay [2] and greater than 10 µM in assay [3].

As for `CN(C)S(=O)(=O)c1c(F)c(F)c(F)c(F)c1OCc1ccc(C(N)=O)cc1` [Compound I-18, 4-((2-(N,N-dimethylsulfamoyl)-3,4,5,6-tetrafluorophenoxy)methyl)benzamide], the values for the IC50 in assay [1], in assay [2] and in assay [3] were 1 to 10 µM, 1 to 10 µM and greater than 10 µM, respectively.

With `CN(C)S(=O)(=O)c1c(F)c(F)c(F)c(F)c1OCc1ccccn1` [Compound I-19, 2,3,4,5-tetrafluoro-N,N-dimethyl-6-(pyridin-2-ylmethoxy)benzenesulfonamide], the IC50 in assay [1] is 1 to 10 µM; in assay [2], 1 to 10 µM; in assay [3], greater than 10 µM.

Regarding `CN(C)S(=O)(=O)c1c(F)c(F)c(F)c(F)c1OC(=O)C(C)(C)C` [Compound I-20, 2-(N,N-dimethylsulfamoyl)-3,4,5,6-tetrafluorophenyl pivalate], the IC50 is 1 to 10 µM in assay [2] and greater than 10 µM in assay [3].

As for `CN(C)S(=O)(=O)c1c(F)c(F)c(F)c(F)c1OC(=O)OC(C)(C)C` [Compound I-21, tert-butyl (2-(N,N-dimethylsulfamoyl)-3,4,5,6-tetrafluorophenyl) carbonate], the IC50 in assay [1], in assay [2] and in assay [3] was greater than 10 µM each time.

Regarding `CC(C)S(=O)(=O)Oc1c(F)c(F)c(F)c(F)c1S(=O)(=O)N(C)C` [Compound I-22, 2-(N,N-dimethylsulfamoyl)-3,4,5,6-tetrafluorophenyl propane-2-sulfonate], the IC50 in assay [2] is 1 to 10 µM; in assay [3], greater than 10 µM.

Take `Cc1c(F)c(F)c(F)c(F)c1S(=O)(=O)N(C)C` [Compound I-25, 2,3,4,5-tetrafluoro-N,N,6-trimethylbenzenesulfonamide]: the IC50 in assay [2] was 1 to 10 µM; in assay [3] it was greater than 10 µM.

Compound `COc1ccc(NS(=O)(=O)c2c(O)c(F)c(F)c(F)c2F)cc1F` [Compound I-63, 2,3,4,5-tetrafluoro-N-(3-fluoro-4-methoxyphenyl)-6-hydroxybenzenesulfonamide] registered an IC50 in assay [1] greater than 10 µM. The compound further registered an IC50 in assay [3] greater than 10 µM. In addition, in assay [4], the “% Inhibition” value is recorded as “A (<10%)” and the “% D.O.P.” value is “A (>85%)”.

In assay [1], `COc1ccc(NS(=O)(=O)c2c(F)c(F)c(F)c(F)c2OC(F)F)cc1F` [Compound I-65, 2-(difluoromethoxy)-3,4,5,6-tetrafluoro-N-(3-fluoro-4-methoxyphenyl)benzenesulfonamide] returned an IC50 of no more than 0.1 µM. In assay [2], this compound had an IC50 of 0.1 to 1 µM. Also, in assay [4], the “% Inhibition” value is recorded as “C (>20%)” and the “% D.O.P.” value was “B (< 85%)”.

`COc1ccc(NS(=O)(=O)c2c(F)c(F)c(F)c(F)c2OCCF)cc1F` [Compound I-66, 2,3,4,5-tetrafluoro-N-(3-fluoro-4-methoxyphenyl)-6-(2-fluoroethoxy)benzenesulfonamide] showed an IC50 in assay [1] of 0.1 to 1 µM. In assay [2], this compound came in with an IC50 of 1 to 10 µM. In addition, in assay [4], the “% Inhibition” value is listed as “B (10-20%)” and the “% D.O.P.” value was “B (< 85%)”.

With `COc1ccc(NS(=O)(=O)c2c(F)c(F)c(F)c(F)c2Oc2ccccc2)cc1F` [Compound I-76, 2,3,4,5-tetrafluoro-N-(3-fluoro-4-methoxyphenyl)-6-phenoxybenzenesulfonamide], the IC50 was 1 to 10 µM in assay [2] and 0.1 to 1 µM in assay [3]. Also, the “% Inhibition” value in assay [4] is recorded as “C (>20%)”. Further, in assay [4], the “% D.O.P.” value was “B (< 85%)”.

`COc1ccc(NS(=O)(=O)c2c(F)c(F)c(F)c(F)c2OC(F)(F)F)cc1F` [Compound I-84, 2,3,4,5-tetrafluoro-N-(3-fluoro-4-methoxyphenyl)-6-(trifluoromethoxy)benzenesulfonamide] displayed an IC50 in assay [1] of no more than 0.1 µM. Moreover, the IC50 in assay [2] is no more than 0.1 µM. In addition, in assay [4], the “% Inhibition” value was “C (>20%)” and the “% D.O.P.” value is given as “B (< 85%)”.

With `CCOc1c(F)c(F)c(F)c(F)c1S(=O)(=O)Nc1ccc(OC)c(F)c1` [Compound I-85, 2-ethoxy-3,4,5,6-tetrafluoro-N-(3-fluoro-4-methoxyphenyl)benzenesulfonamide], in assay [2], the IC50 was no more than 0.1 µM. For the same compound, in assay [4], the “% Inhibition” value is “A (<10%)” and the “% D.O.P.” value is on record as “A (>85%)”.

Regarding `O=S(=O)(Nc1ccc(F)cc1)c1c(F)c(F)c(F)c(F)c1OC1CC1` [Compound I-96, 2-cyclopropoxy-3,4,5,6-tetrafluoro-N-(4-fluorophenyl)benzenesulfonamide], in assay [1], the IC50 is 0.1 to 1 µM. For the same compound, in assay [4], the “% Inhibition” value is “A (<10%)” and the “% D.O.P.” value was “A (>85%)”.

With `O=S(=O)(Nc1cccc(Cl)c1)c1c(F)c(F)c(F)c(F)c1OC1CC1` [Compound I-99, N-(3-chlorophenyl)-2-cyclopropoxy-3,4,5,6-tetrafluorobenzenesulfonamide], the IC50 in assay [1] and in assay [3] was greater than 10 µM in each case.

For `N#Cc1cccc(NS(=O)(=O)c2c(F)c(F)c(F)c(F)c2OC2CC2)c1` [Compound I-100, N-(3-cyanophenyl)-2-cyclopropoxy-3,4,5,6-tetrafluorobenzenesulfonamide], the IC50 in assay [1] and in assay [3] was greater than 10 µM each time.

In the case of `COC(=O)c1ccc(NS(=O)(=O)c2c(F)c(F)c(F)c(F)c2OC2CC2)cc1` [Compound I-102, methyl 4-((2-cyclopropoxy-3,4,5,6-tetrafluorophenyl)sulfonamido)benzoate], the IC50 in assay [1] is 0.1 to 1 µM; in assay [3], greater than 10 µM.

For `C#CCN(c1ccc(OC)c(F)c1)S(=O)(=O)c1c(F)c(F)c(F)c(F)c1OC1CC1` [Compound I-124, 2-cyclopropoxy-3,4,5,6-tetrafluoro-N-(3-fluoro-4-methoxyphenyl)-N-(prop-2-yn-1-yl)benzenesulfonamide], the IC50 in assay [1] and in assay [3] was 1 to 10 µM each time.

On to `CN(C)S(=O)(=O)c1c(F)c(F)c(F)c(F)c1OCCF` [Compound I-125, 2,3,4,5-tetrafluoro-6-(2-fluoroethoxy)-N,N-dimethylbenzenesulfonamide], for which the IC50 in assay [1] is 1 to 10 µM; in assay [3], greater than 10 µM.
